Data on nine molecules can be found in US11306102B2, “1,3-di-substituted ketene compound and application thereof” (BEBETTER MED INC., priority 2017, dated 2022).

In general, EC50 refers to the concentration that produces a half-maximal response. For orientation: AUC(0-inf) means total exposure, with the tail of the curve extrapolated. A lower AUC(0-inf) goes with less exposure. One may read the AUC(0-t) as the area under the concentration-time curve up to a stated or last time point. What is called Cmax is the highest concentration seen after dosing. By Tmax is commonly meant the time from dosing to the highest level.

One data set deals with T1, PPARα (Homo sapiens, UniProt Q07869).
T1 construct: expressed in transfected cells; host or cells: Hela cells
T1 sequence (Q07869 1-468): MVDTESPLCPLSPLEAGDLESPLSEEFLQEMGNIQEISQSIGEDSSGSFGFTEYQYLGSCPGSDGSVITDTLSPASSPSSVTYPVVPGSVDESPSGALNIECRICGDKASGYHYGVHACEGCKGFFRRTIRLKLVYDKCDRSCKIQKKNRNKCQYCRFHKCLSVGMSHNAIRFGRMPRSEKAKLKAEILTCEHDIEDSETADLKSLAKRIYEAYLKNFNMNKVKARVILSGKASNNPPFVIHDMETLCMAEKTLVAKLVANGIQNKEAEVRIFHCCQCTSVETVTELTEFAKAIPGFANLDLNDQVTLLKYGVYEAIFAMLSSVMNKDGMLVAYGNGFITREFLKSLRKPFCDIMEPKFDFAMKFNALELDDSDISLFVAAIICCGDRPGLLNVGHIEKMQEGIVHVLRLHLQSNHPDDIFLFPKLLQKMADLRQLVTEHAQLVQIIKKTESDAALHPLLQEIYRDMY
Briefly: Hela cell/luciferase reporter gene method, PPARα agonist activity. Format: cell-based. The settings on record: Hela cells, pPPRE3-TK-Luciferase reporter, 24 hrs incubation; read-out: agonistic activity on PPAα (EC50). As to the method:
(§1) This example measures the biological activity of a PPAR agonist using the Hela cell/luciferase reporter gene method.
(§2) The target plasmids PCMV PPARα (Ampicillin+), PCMV PPARγ (Ampicillin+), PCMV PPARδ (Ampicillin+), and pPPRE3-TK-Luciferase (Ampicillin+) were introduced into DH5a competent cells by heat shock treatment, respectively. After being incubated for 1 hour at 37° C. with shaking (180 rpm), the cells were inoculated on LB agar solid medium containing antibiotic Ampicillin, and invertedly cultured at 37° C. for 12-16 hours. Then the monoclonal colony cultured on the medium was taken and inoculated into LB liquid medium for expanded culture. The desired plasmid was extracted from the resulting bacterial solution with a Plasmid Midi Kit (Qiagen; #12143). The plasmid obtained by centrifugation was suspended in TE buffer, and the plasmid concentration was measured and the mixture was stored at −20° C. Hela cells in the exponential phase were seeded in 6-well plates (8-10^5 cells/well), and after 6-8 hours of culture, the cells were transfected using Lipofectamine® 3000 Transfection Reagent (Invitrogen; #L3000015). A plasmid containing a PPAR binding site (peroxisome proliferator response element, PPRE) and a firefly luciferase gene (pPPRE3-TK-Luciferase) and PPAR expression vector were co-transfected into a Hela cell with a total amount of plasmid DNA of 2.5 ug (the mass ratio of each PPAR expression vector is pPPRE:PPARα=6:1, pPPRE:PPARδ=8:1, and pPPRE:PPARγ=2:1) to construct a drug screening cell model for PPAR agonists. PPAR was binded to the ligand and then binded to the peroxisome proliferator response element (PPRE), thereby initiating downstream firefly luciferase expression and its expression intensity was directly proportional to the degree of PPAR activation. The cells after 24 hours transfection were prepared into a cell suspension with a cell concentration of […] by a complete culture solution, and seeded into a 96-well plate with 100 ul per well. After overnight culture, the medium was changed to a medium containing 1% FBS. 10 mM candidate compound stock (1000×) were 4-fold diluted in DMSO for 8 points, then supplemented with medium containing 1% FBS to a final concentration of 50 uM (5×) by addition of 25 μl of 5× compound diluent to each well in different concentration gradients and incubated under 37° C., 5% CO2 incubator for 24 hrs. The 96-well plate was taken out and 30 μl of Bright-Glo™ Luciferase Assay System (Promega #E2620) was added to each well. The Luciferase luminescence intensity was measured by a SynergyH1 full-function microplate detector. The obtained data was used to calculate EC50 using GraphPad Prism 5.0 software to determine the biological activity of the compound.
(§3) The agonistic activity of the compounds synthesized in Examples 1-41 on PPAR is represented by EC50 (see Table 1). EC50 refers to the drug concentration at which the compound has a 50% increase in the agonistic activity of the measured PPAR. The compound numbers in Table 1 correspond to the compound numbers in Examples 1-41.
(In general: In a reporter assay the amount or activity of a reporter protein is the signal.)

The target of a further data set is T2, PPARγ (Homo sapiens, UniProt P37231).
T2 construct: expressed in transfected cells; host or cells: Hela cells
T2 sequence (P37231 1-505): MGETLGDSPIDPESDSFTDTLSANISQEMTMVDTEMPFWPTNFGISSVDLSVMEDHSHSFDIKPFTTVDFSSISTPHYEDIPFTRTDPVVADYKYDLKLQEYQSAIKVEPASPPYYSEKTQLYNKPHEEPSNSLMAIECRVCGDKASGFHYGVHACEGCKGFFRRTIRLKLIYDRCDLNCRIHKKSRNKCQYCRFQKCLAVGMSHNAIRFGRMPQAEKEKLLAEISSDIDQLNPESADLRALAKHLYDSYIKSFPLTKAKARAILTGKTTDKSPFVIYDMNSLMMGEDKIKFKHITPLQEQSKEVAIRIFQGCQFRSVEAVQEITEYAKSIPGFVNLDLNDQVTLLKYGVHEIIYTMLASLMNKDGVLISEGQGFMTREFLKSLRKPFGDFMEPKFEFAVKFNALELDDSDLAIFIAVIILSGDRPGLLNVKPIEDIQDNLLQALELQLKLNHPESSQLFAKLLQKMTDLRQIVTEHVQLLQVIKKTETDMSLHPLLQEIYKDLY
Description: Hela cell/luciferase reporter gene method, PPARγ agonist activity. In kind it is cell-based. Particulars: Hela cells, pPPRE3-TK-Luciferase reporter, 24 hrs incubation; read-out: agonistic activity on PPARγ (EC50). The protocol: as §1, §2, §3

The nature of data set [1]: Pharmacokinetic (PK) experiments after intragastric administration in rats. Format: in vivo, SD rats. Particulars: male, SD, rat, plasma, po, intragastric administration 20 mg/kg. The protocol: Male SD rats, weighing 250-300 grams, were fasted overnight before testing. The test compound was dissolved in 30% sulfobutyl-R-cyclodextrin (SBE-β-CD) and administered intragastrically at a dose of 20 mg/kg. Blood was collected 15 minutes, 30 minutes, and 1, 2, 3, 4, […] and 24 hours after the administration. About 0.3 ml of blood was collected at each time point, placed in a centrifuge tube containing K2-EDTA (dipotassium ethylenediamine tetraacetate) and centrifuged (2,000 g, 10 minutes, 4° C.) to take the plasma, which was stored in an ultra-low temperature refrigerator at −80° C. A 50 μL plasma sample was mixed with 5 μl of internal standard (IS) and extracted with ethyl acetate. The residue was redissolved in acetonitrile after drying under vacuum. The sample was filtered and injected into an LC-MS/MS for analysis.

A further data set deals with T3, PPARδ (Homo sapiens, UniProt Q03181).
T3 construct: expressed in transfected cells; host or cells: Hela cells
T3 sequence (Q03181 1-441): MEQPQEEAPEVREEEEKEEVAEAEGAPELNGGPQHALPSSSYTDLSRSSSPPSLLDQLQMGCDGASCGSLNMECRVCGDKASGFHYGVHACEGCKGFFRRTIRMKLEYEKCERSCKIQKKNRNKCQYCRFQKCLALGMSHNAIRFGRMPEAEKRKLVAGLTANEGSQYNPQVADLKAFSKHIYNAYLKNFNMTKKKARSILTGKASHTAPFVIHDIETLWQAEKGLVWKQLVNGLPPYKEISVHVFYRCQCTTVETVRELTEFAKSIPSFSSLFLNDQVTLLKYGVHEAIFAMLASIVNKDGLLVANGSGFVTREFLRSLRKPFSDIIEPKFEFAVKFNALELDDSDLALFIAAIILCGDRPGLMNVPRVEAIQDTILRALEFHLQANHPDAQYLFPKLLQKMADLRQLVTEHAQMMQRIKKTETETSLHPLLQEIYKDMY
Description: Hela cell/luciferase reporter gene method, PPARδ agonist activity. In kind it is cell-based. The settings on record: Hela cells, pPPRE3-TK-Luciferase reporter, 24 hrs incubation; read-out: agonistic activity on PPARδ (EC50). As to the method: as §1
as §2, with “The desired plasmid was extracted from the resulting bacterial solution with a Plasmid Midi Kit (Qiagen; #12143).” left out

For the molecule `COc1ccc(C(=O)/C=C/c2cc(C)c(OC(C)(C)C(=O)O)c(C)c2)c2occc12` [Compound 1, (E)-2-(4-(3-(4-methoxybenzofuran-7-yl)-3-oxoprop-1-en-1-yl)-2,6-dimethylphenoxy)-2-methylpropanoic acid], the EC50 amounted to 420 nM at PPARα and 172 nM at PPARγ.

On to `CSc1ccc(C(=O)/C=C/c2cc(C)c(OCC(=O)O)c(C)c2)c2occc12` [Compound 13, (E)-2-(2,6-dimethyl-4-(3-(4-(methylthio)benzofuran-7-yl)-3-oxoprop-1-en-1-yl)phenoxy)acetic acid], for which the EC50 on PPARα is 476 nM; on PPARγ, 3410 nM.

For `CSc1ccc(C(=O)/C=C/c2cc(C)c(OC(C)(C)C(=O)O)c(C)c2)cc1` [Elafibranor, reference compound], the EC50 on PPARα amounted to 29.2 nM. Also, the EC50 on PPARγ worked out at 86.6 nM. For the same molecule, in data set [1], the AUC(0-inf) worked out at 1350 ng·h/mL, the AUC(0-t) amounted to 1350 ng·h/mL, the Cmax amounted to 1140 ng/mL and the time to peak (Tmax) was 19.8 min. In addition, the half-life in data set [1] (read-out: Terminal T1/2 (converted)) was 49.2 min.

With `Cc1cc(/C=C/C(=O)c2ccc3sccc3c2)cc(C)c1OC(C)(C)C(=O)O` [Compound 38, (E)-2-(4-(3-(benzo[b]thiophen-5-yl)-3-oxoprop-1-en-1-yl)-2,6-dimethylphenoxy)-2-methylpropanoic acid], the EC50 at PPARα is over 10000 nM; at PPARδ, 838 nM.

For `CSc1ccc(C(=O)/C=C/c2cc(C)c(OC(C)(C)C(=O)O)c(C)c2)c2oc(C)cc12` [Compound 14, (E)-2-(2,6-dimethyl-4-(3-(2-methyl-4-(methylthio)benzofuran-7-yl)-3-oxoprop-1-en-1-yl)phenoxy)-2-methylpropanoic acid], the results for the EC50 at PPARα and on PPARγ were 156 nM and 122 nM, respectively.

In the case of `Cc1cc(/C=C/C(=O)c2cccc3ccoc23)cc(C)c1OC(C)(C)C(=O)O` [Compound 3, (E)-2-(4-(3-(benzofuran-7-yl)-3-oxoprop-1-en-1-yl)-2,6-dimethylphenoxy)-2-methylpropanoic acid], the EC50 at PPARα was determined as 453 nM; at PPARγ it was 577 nM.

`CSc1ccc(C(=O)/C=C/c2ccc(OC(C)(C)C(=O)O)cc2)c2occc12` [Compound 12, (E)-2-methyl-2-(4-(3-(4-(methylthio)benzofuran-7-yl)-3-oxoprop-1-en-1-yl)phenoxy)propanoic acid]: the results for the EC50 on PPARα and at PPARγ were 99.8 nM and 279 nM, respectively.

In the case of `CSc1ccc2cc(C(=O)/C=C/c3ccc(OC(C)(C)C(=O)O)cc3)oc2c1` [Compound 56, (E)-2-methyl-2-(4-(3-(6-(methylthio)benzofuran-2-yl)-3-oxoprop-1-en-1-yl)phenoxy)propanoic acid], the EC50 was 83.9 nM at PPARα and 1100 nM on PPARγ.

For the molecule `Cc1ccc2cc(C(=O)/C=C/c3cc(C)c(OC(C)(C)C(=O)O)c(C)c3)oc2c1` [Compound 50, (E)-2-(2,6-dimethyl-4-(3-(6-methylbenzofuran-2-yl)-3-oxoprop-1-en-1-yl)phenoxy)-2-methylpropanoic acid], the EC50 on PPARα was determined as 123 nM; on PPARγ, 167 nM.
